Values quoted from earlier work as cited in patent US4486414A, “Dolastatins A and B cell growth inhibitory substances” (Arizona Board of Reagents, priority 1983, dated 1984).

What was measured:
[1] = system: murine P388 lymphocytic leukemia; details: intraperitoneal doses of 11 μg/kg/day; cited from earlier work
[2] = system: murine B16 melanoma; details: intraperitoneal doses of 11 μg/kg/day; cited from earlier work

For dolastatin 1, the life extension [1] is listed as 88% and the curative response [2] is listed as 30%.
